Data on six compounds can be found in patent US6995143B2, “Macrolides with antibacterial activity” (Basilea Pharmaceutica AG, priority 2002, dated 2006).

Converted amounts (≈) assume the structure as drawn.

Assay type in all cases: cell-based
Assay [1] relates to Staphylococcus aureus ATCC 29213. As to the kind of experiment: MIC, standard microdilution technique. An excerpt: (§1) The antibacterial activities of the compounds have been determined by standard microdilution technique (National Committee for Clinical Laboratory Standards. 2000. Methods for Dilution Antimicrobial Susceptibility Tests for Bacteria that Grow Aerobically, 5th edition. Approved standard M7-A5. National Committee for Clinical Laboratory Standards, Wayne, Pa.).

In assay [2] the test system is Staphylococcus aureus 1086. The assay can be described thus: MIC, standard microdilution technique.
From the text: as §1

For assay [3], the system named is Staphylococcus aureus 745. As to the kind of experiment: MIC, standard microdilution technique.
From the text: as §1
(In general: Broth dilution looks for growth in wells or tubes with falling amounts of substance.)

Assay [4] concerns Streptococcus pneumoniae SL199T. As to the kind of experiment: MIC, standard microdilution technique.
From the text: as §1

Assay [5] deals with Streptococcus pneumoniae l/l. As to the kind of experiment: MIC, standard microdilution technique.
From the text: as §1

The subject of assay [6] is Escherichia coli ATCC 25922. The assay can be described thus: MIC, standard microdilution technique.
From the text: as §1

The test system of assay [7] is Streptococcus pneumoniae ¼. The assay can be described thus: MIC, standard microdilution technique.
From the text: as §1

Assay [8] concerns Streptococcus pneumoniae 12288. As to the kind of experiment: MIC, standard microdilution technique.
From the text: as §1

Assay [9] concerns Haemophilus influenzae QK50. As to the kind of experiment: MIC, standard agar dilution method using HTM medium. An excerpt: (§2) The biological activities of compounds of the present invention against Haemophilus influenzae have been determined by standard agar dilution method using HTM medium (National Committee for Clinical Laboratory Standards. 2000. Methods for Dilution Antimicrobial Susceptibility Tests for Bacteria that Grow Aerobically, 5th edition. Approved standard M7-A5. National Committee for Clinical Laboratory Standards, Wayne, Pa.).

Assay [10] relates to Haemophilus influenzae QK12/87. Described as above.
From the text: as §2

The subject of assay [11] is Haemophilus influenzae B1501. The assay is described as above.
From the text: as §2

Assay [12] relates to Haemophilus influenzae 12214. The description is as above.
From the text: as §2

As for `CC[C@H]1OC(=O)[C@H](C)C(=O)[C@H](C)[C@@H](O[C@@H]2O[C@H](C)C[C@H](N(C)C)[C@H]2O)[C@](C)(OC)C[C@@H](C)C(=O)[C@H](C)[C@H]2[C@@H](SCCNC(=O)c3ccc(-n4ccnc4)nc3)C(=O)O[C@@]21C` (single isomer, unassigned) [Example 48], the “minimum inhibitory concentration (MIC), Strain A” value in assay [1] is 0.25 µg/mL (≈ 0.291 µM). Further, the “minimum inhibitory concentration (MIC), Strain B” value in assay [2] is 0.25 µg/mL (≈ 0.291 µM). The “minimum inhibitory concentration (MIC), Strain C” value in assay [3] is more than 32 µg/mL. Also, the “minimum inhibitory concentration (MIC), Strain G” value in assay [4] is more than 32 µg/mL. Besides, the “minimum inhibitory concentration (MIC), Strain E” value in assay [5] is “<=0.06 μg/ml”. The “minimum inhibitory concentration (MIC), Strain D” value in assay [6] was more than 32 µg/mL. In [7], the “minimum inhibitory concentration (MIC), Strain F” value was more than 32 µg/mL. Besides, the “minimum inhibitory concentration (MIC), Strain H” value in [8] is more than 32 µg/mL. In assay [9], the “minimum inhibitory concentration (MIC), Strain L” value was 16 µg/mL (≈ 18.6 µM). The “minimum inhibitory concentration (MIC), Strain I” value in [10] was determined as 16 µg/mL (≈ 18.6 µM). Besides, the “minimum inhibitory concentration (MIC), Strain M” value in [11] stood at 16 µg/mL (≈ 18.6 µM). Further, the “minimum inhibitory concentration (MIC), Strain K” value in [12] worked out at 32 µg/mL (≈ 37.3 µM).

Regarding “(3R or S, 3aR, 4R or S, 6R, 8R, 9R, 10R, 12S, 15R, 15aS) -3-[[3-[6-Amino-9H-purine-9-yl]propyl]thio]-15-ethyl-12-fluorooctahydro-8-methoxy-4,6,8,10,12,15a-hexamethyl-3-9-[[3,4,6-trideoxy-3-(dimethylamino)-β-D-xylo-hexopyranosyl]oxy]-2H-furo [2,3-c] oxacyclotetradecin-2,5,11,13 (3H,6H,12H)-tetrone [Example 13]”, the “minimum inhibitory concentration (MIC), Strain A” value in assay [1] is “<=0.06 μg/ml”. Further, the “minimum inhibitory concentration (MIC), Strain B” value in assay [2] is “<=0.06 μg/ml”. For the same compound, the “minimum inhibitory concentration (MIC), Strain C” value in [3] was more than 32 µg/mL. In assay [4], the “minimum inhibitory concentration (MIC), Strain G” value is “<=0.06 μg/ml”. The “minimum inhibitory concentration (MIC), Strain E” value in [5] is “<=0.06 μg/ml”. The “minimum inhibitory concentration (MIC), Strain D” value in assay [6] was found to be 32 µg/mL. Besides, in [7], the “minimum inhibitory concentration (MIC), Strain F” value is given as “<=0.06 μg/ml”. For the same compound, the “minimum inhibitory concentration (MIC), Strain H” value in assay [8] is 0.25 µg/mL. The “minimum inhibitory concentration (MIC), Strain L” value in assay [9] came out at 2 µg/mL. Moreover, the “minimum inhibitory concentration (MIC), Strain I” value in assay [10] worked out at 2 µg/mL. Besides, the “minimum inhibitory concentration (MIC), Strain M” value in assay [11] was 2 µg/mL. In assay [12], the “minimum inhibitory concentration (MIC), Strain K” value amounted to 2 µg/mL.

For the compound `CC[C@H]1OC(=O)[C@H](C)C(=O)[C@H](C)[C@@H](O[C@@H]2O[C@H](C)C[C@H](N(C)C)[C@H]2O)[C@](C)(OC)C[C@@H](C)C(=O)[C@H](C)[C@H]2[C@@H](SCC(=O)c3ccc(N(CC)CC)cc3)C(=O)O[C@@]21C` [Example 17], in assay [1], the “minimum inhibitory concentration (MIC), Strain A” value was 16 µg/mL (≈ 19.2 µM). Besides, the “minimum inhibitory concentration (MIC), Strain B” value in assay [2] turned out to be 8 µg/mL (≈ 9.6 µM). In addition, in assay [3], the “minimum inhibitory concentration (MIC), Strain C” value is more than 32 µg/mL. Besides, in assay [4], the “minimum inhibitory concentration (MIC), Strain G” value is more than 32 µg/mL. For the same compound, the “minimum inhibitory concentration (MIC), Strain E” value in [5] came to 1 µg/mL (≈ 1.2 µM). In addition, in assay [6], the “minimum inhibitory concentration (MIC), Strain D” value was more than 32 µg/mL. The “minimum inhibitory concentration (MIC), Strain F” value in [7] is more than 32 µg/mL. In addition, the “minimum inhibitory concentration (MIC), Strain H” value in assay [8] is more than 32 µg/mL. The “minimum inhibitory concentration (MIC), Strain L” value in assay [9] was more than 32 µg/mL. Further, the “minimum inhibitory concentration (MIC), Strain I” value in assay [10] was more than 32 µg/mL. Further, the “minimum inhibitory concentration (MIC), Strain M” value in assay [11] is more than 32 µg/mL. Moreover, the “minimum inhibitory concentration (MIC), Strain K” value in assay [12] is more than 32 µg/mL.

`CC[C@H]1OC(=O)[C@H](C)C(=O)[C@H](C)[C@@H](O[C@@H]2O[C@H](C)C[C@H](N(C)C)[C@H]2O)[C@](C)(OC)C[C@@H](C)C(=O)[C@H](C)[C@H]2[C@@H](SCC(=O)c3ccc(OC)cc3OC)C(=O)O[C@@]21C` [Example 45]: the “minimum inhibitory concentration (MIC), Strain A” value in assay [1] turned out to be 0.25 µg/mL (≈ 0.304 µM). Also, the “minimum inhibitory concentration (MIC), Strain B” value in [2] turned out to be 0.25 µg/mL (≈ 0.304 µM). For the same compound, the “minimum inhibitory concentration (MIC), Strain C” value in assay [3] was more than 32 µg/mL. Besides, the “minimum inhibitory concentration (MIC), Strain G” value in [4] is 16 µg/mL (≈ 19.5 µM). Besides, the “minimum inhibitory concentration (MIC), Strain E” value in [5] is on record as “<=0.06 μg/ml”. The “minimum inhibitory concentration (MIC), Strain D” value in [6] is more than 32 µg/mL. Also, the “minimum inhibitory concentration (MIC), Strain F” value in assay [7] amounted to 0.5 µg/mL (≈ 0.608 µM). The “minimum inhibitory concentration (MIC), Strain H” value in assay [8] is more than 32 µg/mL. For the same compound, the “minimum inhibitory concentration (MIC), Strain L” value in assay [9] was 8 µg/mL (≈ 9.73 µM). Besides, the “minimum inhibitory concentration (MIC), Strain I” value in assay [10] stood at 8 µg/mL (≈ 9.73 µM). Moreover, the “minimum inhibitory concentration (MIC), Strain M” value in assay [11] came out at 4 µg/mL (≈ 4.87 µM). Also, in [12], the “minimum inhibitory concentration (MIC), Strain K” value amounted to 8 µg/mL (≈ 9.73 µM).

As to `CC[C@H]1OC(=O)[C@@](C)(F)C(=O)[C@H](C)[C@@H](O[C@@H]2O[C@H](C)C[C@H](N(C)C)[C@H]2O)[C@](C)(OC)C[C@@H](C)C(=O)[C@H](C)[C@H]2[C@@H](SCCOCn3cc(C)c(=O)[nH]c3=O)C(=O)O[C@@]21C` (single isomer, unassigned) [Example 14, (3R or S) 3aR, 4R or S, 6R, 8R, 9R, 10R, 12S, 15R, 15aS)-15-Ethyl-12-fluorooctahydro-8-methoxy-4,6,8,10,12,15a-hexamethyl-3-[[2-[[5-methyl-2,4-(1H,3H)-pyrimidinedione-1-yl]methoxy]ethyl]thio]-9-[[3,4,6-trideoxy-3-(dimethylamino)-β-D-xylo-hexopyranosyl]oxy]-2H-furo [2,3-c] oxacyclotetradecin-2,5,11,13 (3H,6H,12H)-tetrone], the “minimum inhibitory concentration (MIC), Strain A” value in [1] was “<=0.06 μg/ml”. In addition, the “minimum inhibitory concentration (MIC), Strain B” value in assay [2] was “<=0.06 μg/ml”. Besides, the “minimum inhibitory concentration (MIC), Strain C” value in assay [3] was more than 32 µg/mL. The “minimum inhibitory concentration (MIC), Strain G” value in assay [4] worked out at 1 µg/mL (≈ 1.18 µM). Besides, the “minimum inhibitory concentration (MIC), Strain E” value in assay [5] is given as “<=0.06 μg/ml”. Also, in assay [6], the “minimum inhibitory concentration (MIC), Strain D” value was more than 32 µg/mL. In addition, in [7], the “minimum inhibitory concentration (MIC), Strain F” value stood at 2 µg/mL (≈ 2.37 µM). Besides, the “minimum inhibitory concentration (MIC), Strain H” value in assay [8] was found to be 16 µg/mL (≈ 19 µM). For the same compound, in assay [9], the “minimum inhibitory concentration (MIC), Strain L” value was 2 µg/mL (≈ 2.37 µM). In addition, the “minimum inhibitory concentration (MIC), Strain I” value in [10] is 2 µg/mL (≈ 2.37 µM). Also, in assay [11], the “minimum inhibitory concentration (MIC), Strain M” value is 2 µg/mL (≈ 2.37 µM). For the same compound, in assay [12], the “minimum inhibitory concentration (MIC), Strain K” value turned out to be 2 µg/mL (≈ 2.37 µM).

With `CC[C@H]1OC(=O)[C@H](C)C(=O)[C@H](C)[C@@H](O[C@@H]2O[C@H](C)C[C@H](N(C)C)[C@H]2O)[C@](C)(OC)C[C@@H](C)C(=O)[C@H](C)[C@H]2[C@@H](SCC(=O)Nc3ccc4ccccc4n3)C(=O)O[C@@]21C` [Example 37], the “minimum inhibitory concentration (MIC), Strain A” value in [1] is 0.125 µg/mL (≈ 0.151 µM). Besides, the “minimum inhibitory concentration (MIC), Strain B” value in assay [2] is listed as “<=0.06 μg/ml”. Further, the “minimum inhibitory concentration (MIC), Strain C” value in assay [3] is more than 32 µg/mL. For the same compound, in assay [4], the “minimum inhibitory concentration (MIC), Strain G” value was more than 32 µg/mL. In assay [5], the “minimum inhibitory concentration (MIC), Strain E” value was “<=0.06 μg/ml”. Also, the “minimum inhibitory concentration (MIC), Strain D” value in assay [6] is more than 32 µg/mL. Besides, the “minimum inhibitory concentration (MIC), Strain F” value in assay [7] amounted to 4 µg/mL (≈ 4.83 µM). The “minimum inhibitory concentration (MIC), Strain H” value in [8] was more than 32 µg/mL. The “minimum inhibitory concentration (MIC), Strain L” value in [9] came out at 8 µg/mL (≈ 9.66 µM). Besides, the “minimum inhibitory concentration (MIC), Strain I” value in assay [10] is 8 µg/mL (≈ 9.66 µM). Moreover, the “minimum inhibitory concentration (MIC), Strain M” value in assay [11] turned out to be 8 µg/mL (≈ 9.66 µM). For the same compound, the “minimum inhibitory concentration (MIC), Strain K” value in [12] amounted to 16 µg/mL (≈ 19.3 µM).
